Assay results as given in US20250388571A1, “AMP-ACTIVATED PROTEIN KINASE MODULATOR COMPOUNDS AND USES THEREOF” (Biolexis Therapeutics, Inc., priority 2024, published 2025).

Tests used:
[1] = target: AMPK (A2/B1/G3) (Homo sapiens, UniProt P54646+Q9UGI9+Q9Y478); experiment: AMPK kinase binding activity in activation mode (AC50); type: biochemical
[2] = target: AMPK (A2/B2/G3) (Homo sapiens, UniProt O43741+P54646+Q9UGI9); experiment: as above; type: biochemical
Description: In Vitro AMPK Kinase Inhibition Experiments

Chain of AMPK (A2/B2/G3) (P54646 whole entry): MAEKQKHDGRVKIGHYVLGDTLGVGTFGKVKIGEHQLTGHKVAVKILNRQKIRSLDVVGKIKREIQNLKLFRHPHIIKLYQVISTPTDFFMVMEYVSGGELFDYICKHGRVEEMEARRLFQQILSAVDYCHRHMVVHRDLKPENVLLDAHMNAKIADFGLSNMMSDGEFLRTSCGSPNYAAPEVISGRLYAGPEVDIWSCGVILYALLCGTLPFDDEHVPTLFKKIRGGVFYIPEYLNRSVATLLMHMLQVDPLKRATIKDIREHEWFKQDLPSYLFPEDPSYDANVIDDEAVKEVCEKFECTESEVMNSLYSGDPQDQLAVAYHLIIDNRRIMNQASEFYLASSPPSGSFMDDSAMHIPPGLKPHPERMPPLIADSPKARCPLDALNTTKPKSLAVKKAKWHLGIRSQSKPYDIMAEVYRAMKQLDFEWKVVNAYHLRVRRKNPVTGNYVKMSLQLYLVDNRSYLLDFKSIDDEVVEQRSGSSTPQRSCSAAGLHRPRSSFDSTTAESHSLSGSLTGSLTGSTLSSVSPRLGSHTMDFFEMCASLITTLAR
Chain of AMPK (A2/B2/G3) (O43741 whole entry): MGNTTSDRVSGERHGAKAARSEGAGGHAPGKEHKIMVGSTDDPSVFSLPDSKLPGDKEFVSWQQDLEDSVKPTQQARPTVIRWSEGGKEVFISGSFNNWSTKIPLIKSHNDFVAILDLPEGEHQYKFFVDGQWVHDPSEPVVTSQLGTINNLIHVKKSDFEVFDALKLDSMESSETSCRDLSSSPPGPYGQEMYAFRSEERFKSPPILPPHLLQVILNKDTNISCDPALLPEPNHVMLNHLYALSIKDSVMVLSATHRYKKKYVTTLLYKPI
Chain of AMPK (A2/B2/G3) (Q9UGI9 whole entry): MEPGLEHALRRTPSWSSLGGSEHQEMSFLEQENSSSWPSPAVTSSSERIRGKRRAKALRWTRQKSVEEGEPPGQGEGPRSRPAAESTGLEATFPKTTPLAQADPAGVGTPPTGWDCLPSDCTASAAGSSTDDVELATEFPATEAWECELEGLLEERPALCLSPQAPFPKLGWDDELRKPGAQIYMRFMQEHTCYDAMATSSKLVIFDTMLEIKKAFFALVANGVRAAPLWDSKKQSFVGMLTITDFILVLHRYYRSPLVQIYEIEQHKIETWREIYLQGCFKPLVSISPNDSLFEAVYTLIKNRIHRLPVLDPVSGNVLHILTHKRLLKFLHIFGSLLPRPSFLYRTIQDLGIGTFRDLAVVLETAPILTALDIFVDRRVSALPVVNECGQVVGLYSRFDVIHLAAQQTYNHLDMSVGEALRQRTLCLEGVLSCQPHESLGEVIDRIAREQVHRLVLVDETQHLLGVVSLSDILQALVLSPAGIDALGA
Chain of AMPK (A2/B1/G3) (P54646 whole entry): as the sequence (P54646 whole entry) above
Chain of AMPK (A2/B1/G3) (Q9Y478 whole entry): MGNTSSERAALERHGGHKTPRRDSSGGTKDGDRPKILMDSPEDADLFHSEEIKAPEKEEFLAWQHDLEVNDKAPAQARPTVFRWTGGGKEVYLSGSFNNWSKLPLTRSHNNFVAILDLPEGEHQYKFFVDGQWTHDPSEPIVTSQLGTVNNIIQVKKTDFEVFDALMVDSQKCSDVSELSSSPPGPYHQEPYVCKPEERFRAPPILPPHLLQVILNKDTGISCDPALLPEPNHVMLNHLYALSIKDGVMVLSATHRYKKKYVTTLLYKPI
Chain of AMPK (A2/B1/G3) (Q9UGI9 whole entry): as the sequence (Q9UGI9 whole entry) above

| Compound | AC50 [1] | AC50 [2] |
| --- | --- | --- |
| 1-(6-chloro-5-(4-(1- hydroxycyclobutyl) phenyl)- 1H-indol-3-yl)-4-methyl-4,5- dihydro-3H-1l6,2,5- thiadiazol-3-one 1-oxide (racemic) [Compound I-2, 1-(6-chloro-5-(4-(1-hydroxycyclobutyl)phenyl)-1H-indol-3-yl)-4-methyl-4,5-dihydro-3H-1l6,2,5-thiadiazol-3-one 1-oxide (racemic)] | 0.01 to 0.5 µM |  |
| O=c1[nH]c(-c2c[nH]c3ncc(-c4ccc(C5(O)CCC5)cc4)cc23)no1 [Compound I-9, 3-(5-(4-(1-hydroxycyclobutyl)phenyl)-1H-pyrrolo[2,3-b]pyridin-3-yl)-1,2,4-oxadiazol-5(4H)-one] | 0.01 to 0.5 µM |  |
| O=c1[nH]c(-c2c[nH]c3cc(F)c(-c4ccc(C5(O)COC5)cc4)nc23)no1 [Compound I-45, 3-(6-fluoro-5-(4-(3-hydroxyoxetan-3-yl)phenyl)-1H-pyrrolo[3,2-b]pyridin-3-yl)-1,2,4-oxadiazol-5(4H)-one] | 5 to 7.5 µM |  |
| C[C@H]1NS(=O)(c2c[nH]c3cc(Cl)c(-c4ccc(C5(O)CCC5)cc4)cc23)=NC1=O (stereo partly drawn) [Compound I-4, (4R)-1-(6-chloro-5-(4-(1-hydroxycyclobutyl)phenyl)-1H-indol-3-yl)-4-methyl-4,5-dihydro-3H-1l6,2,5-thiadiazol-3-one 1-oxide] | 0.01 to 0.5 µM |  |
| O=P(O)(O)CSc1c[nH]c2cc(F)c(N3CC[C@H](O)C3)c(F)c12 [Compound I-26, (S)-(((4,6-difluoro-5-(3-hydroxypyrrolidin-1-yl)-1H-indol-3-yl)thio)methyl) phosphonic acid] | 0.01 to 0.5 µM | 0.5 to 5 µM |
| C[C@@H]1NS(=O)(c2c[nH]c3cc(Cl)c(-c4ccc(C5(O)CCC5)cc4)cc23)=NC1=O (stereo partly drawn) [Compound I-3, (4S)-1-(6-chloro-5-(4-(1-hydroxycyclobutyl)phenyl)-1H-indol-3-yl)-4-methyl-4,5-dihydro-3H-1l6,2,5-thiadiazol-3-one 1-oxide] | 0.01 to 0.5 µM |  |
| O=c1[nH]c(-c2c[nH]c3cc(F)c(-c4ccc(C5(O)CCC5)cc4)nc23)no1 [Compound I-44, 3-(6-fluoro-5-(4-(1-hydroxycyclobutyl)phenyl)-1H-pyrrolo[3,2-b]pyridin-3-yl)-1,2,4-oxadiazol-5(4H)-one] | 0.5 to 5 µM |  |
| O=P(O)(O)CSc1c[nH]c2cc(F)c(-c3ccc(N4CC[C@H](O)C4)cc3)cc12 [Compound I-24, (S)-(((6-fluoro-5-(4-(3-hydroxypyrrolidin-1-yl)phenyl)-1H-indol-3-yl)thio)methyl)phosphonic acid] | 0.01 to 0.5 µM | 0.5 to 5 µM |
| O=P(O)(O)CSc1c[nH]c2cc(F)c(-c3ccc(N4CC[C@H](O)C4)cc3)c(F)c12 [Compound I-25, (S)-(((4,6-difluoro-5-(4-(3-hydroxypyrrolidin-1-yl)phenyl)-1H-indol-3-yl)thio)methyl)phosphonic acid] | 0.01 to 0.5 µM | 0.5 to 5 µM |

Results, then the compound that gave them:

| AC50 [1] | AC50 [2] | Compound |
| --- | --- | --- |
| 0.01 to 0.5 µM | 0.01 to 0.5 µM | Cc1ccc(N2CC(=O)NS2(=O)=O)cc1Oc1nc2cc(-c3ccc(C4(O)CCC4)cc3)c(Cl)cc2[nH]1 [II-23, 5-(3-((6-chloro-5-(4-(1-hydroxycyclobutyl)phenyl)-1H-benzo[d]imidazol-2-yl)oxy)-4-methylphenyl)-1,2,5-thiadiazolidin-3-one 1,1-dioxide] |
| 0.5 to 5 µM | 0.5 to 5 µM | OB1OCc2ccc(-c3c[nH]c4cc(Cl)c(-c5ccc(C6(O)CCC6)cc5)cc34)cc21 [Compound I-75, 6-(6-chloro-5-(4-(1-hydroxycyclobutyl)phenyl)-1H-indol-3-yl)benzo[c][1,2]oxaborol-1(3H)-ol] |
| ≤ 0.01 µM | 0.01 to 0.5 µM | Cc1cc2c(cc1Oc1nc3nc(-c4ccc(C5(O)CCC5)cc4)c(Cl)cc3[nH]1)B(O)OC2 [II-26, 6-((6-chloro-5-(4-(1-hydroxycyclobutyl)phenyl)-1H-imidazo[4,5-b]pyridin-2-yl)oxy)-5-methylbenzo[c][1,2]oxaborol-1(3H)-ol] |
| 0.01 to 0.5 µM | 0.5 to 5 µM | O=P(O)(O)CSc1c[nH]c2cc(F)c(-c3ccc(C4(O)CCC4)cc3)cc12 [Compound I-47, (((6-fluoro-5-(4-(1-hydroxycyclobutyl)phenyl)-1H-indol-3-yl)thio)methyl)phosphonic acid] |
| 0.01 to 0.5 µM | 0.01 to 0.5 µM | Cc1ccc(N2CC(=O)NS2(=O)=O)cc1Oc1nc2cc(-c3ccc(C4(O)CCC4)cc3)c(F)cc2[nH]1 [II-22, 5-(3-((6-fluoro-5-(4-(1-hydroxycyclobutyl)phenyl)-1H-benzo[d]imidazol-2-yl)oxy)-4-methylphenyl)-1,2,5-thiadiazolidin-3-one 1,1-dioxide] |
| 0.01 to 0.5 µM | 0.5 to 5 µM | O=P(O)(O)CSc1c[nH]c2ccc(-c3ccc(C4(O)CCC4)cc3)cc12 [Compound I-48, (((5-(4-(1-hydroxycyclobutyl)phenyl)-1H-indol-3-yl)thio)methyl)phosphonic acid] |
| 0.01 to 0.5 µM | 0.5 to 5 µM | O=P(O)(O)CSc1c[nH]c2cc(F)c(-c3ccc(C4(O)CCC4)cc3)c(F)c12 [Compound I-46, (((4,6-difluoro-5-(4-(1-hydroxycyclobutyl)phenyl)-1H-indol-3-yl)thio)methyl)phosphonic acid] |
| ≤ 0.01 µM | 0.5 to 5 µM | O=C1CN(c2c[nH]c3cc(Cl)c(-c4ccc(C5(O)CCC5)cc4)cc23)S(=O)(=O)N1 [Compound I-76, 5-(6-chloro-5-(4-(1-hydroxycyclobutyl)phenyl)-1H-indol-3-yl)-1,2,5-thiadiazolidin-3-one 1,1-dioxide] |
| ≤ 0.01 µM | 5 to 7.5 µM | Cc1ccc(N2CC(=O)NS2(=O)=O)cc1Oc1nc2nc(-c3ccc(C4(O)CCC4)cc3)c(Cl)cc2[nH]1 [II-21, 5-(3-((6-chloro-5-(4-(1-hydroxycyclobutyl)phenyl)-1H-imidazo[4,5-b]pyridin-2-yl)oxy)-4-methylphenyl)-1,2,5-thiadiazolidin-3-one 1,1-dioxide] |
